Measurements published in patent publication US7943629B2, “Sulphimides as protein kinase inhibitors” (Bayer Schering Pharma AG, priority 2006, dated 2011).

Tests used:
Aurora-C = biological target: T1, Aurora-C (Homo sapiens, UniProt Q9UQB9); assay: Aurora-C kinase assay; assay type: biochemical; conditions: for IC50: 3 μM ATP, 22° C., 90 min
T1 construct: made in house; host or cells: transiently transfected HEK293 cells
T1 sequence (Q9UQB9 1-309): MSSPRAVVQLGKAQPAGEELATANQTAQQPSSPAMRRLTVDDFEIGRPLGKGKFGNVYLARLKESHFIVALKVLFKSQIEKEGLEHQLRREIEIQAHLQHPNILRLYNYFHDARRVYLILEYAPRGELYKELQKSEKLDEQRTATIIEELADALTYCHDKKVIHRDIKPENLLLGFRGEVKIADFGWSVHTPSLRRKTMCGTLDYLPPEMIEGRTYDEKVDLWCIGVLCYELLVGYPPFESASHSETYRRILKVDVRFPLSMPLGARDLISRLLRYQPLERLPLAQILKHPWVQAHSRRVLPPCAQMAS
Description: Recombinant Aurora-C protein was expressed in transiently transfected HEK293 cells and then purified. The kinase substrate used was the biotinylated peptide having the amino acid sequence biotin-FMRLRRLSTKYRT, which was purchased from Jerini AG in Berlin.
Aurora-C [5 nM in the test mixture, test volume 5 μl] was incubated in the presence of various concentrations of test substances (0 μM and 10 measurement points within the range 0.001-20 μM in duplicate) in assay buffer [25 mM HEPES pH 7.4, 0.5 mM MnCl2, 0.1 mM Na ortho-vanadate, 2.0 mM dithiothreitol, 0.05% bovine serum albumin (BSA), 0.01% Triton X-100, 3 μM adenosine trisphosphate (ATP), 0.67 nCi/μl gamma-^33P-ATP, 2.0 μM substrate peptide biotin-FMRLRRLSTKYRT, 1.0% dimethyl sulphoxide] at 22° C. for 90 min. The reaction was stopped by adding 12.5 μl of an EDTA/detection solution [16 mM EDTA, 40 mM ATP, 0.08% Triton X-100, 4 mg/ml PVT streptavidin SPA beads (from Amersham)]. After incubation for 10 minutes, the SPA beads were pelleted by centrifugation at 1000×G for 10 minutes. Measurement took place in a PerkinElmer Topcount scintillation counter. The measured data were normalized to 0% inhibition (enzyme reaction without inhibitor) and 100% inhibition (enzyme reaction in the presence of 0.1 μM staurosporine (from Sigma)). The IC50 values were determined by means of a 4-parameter fit using the company's own software.

CDK1/CycB = biological target: T2, CDK1/CycB (Homo sapiens, UniProt P06493); assay: CDK1/CycB kinase assay; assay type: biochemical; conditions: 0.5 μM ATP, histone IIIS, 22° C., 10 min
T2 construct: GST; purchased ProQinase GmbH, Freiburg; host or cells: baculovirus-infected insect cells (Sf9)
Description: (§1) Recombinant CDK1- and CycB-GST fusion proteins, purified from baculovirus-infected insect cells (Sf9), were purchased from ProQinase GmbH, Freiburg. The histone IIIS used as kinase substrate can be purchased from Sigma. CDK1/CycB (200 ng/measurement point) was incubated in the presence of various concentrations of test substances (0 μM, and within the range 0.01-100 μM) in assay buffer [50 mM Tris/HCl pH 8.0, 10 mM MgCl2, 0.1 mM Na ortho-vanadate, 1.0 mM dithiothreitol, 0.5 μM ATP, 10 μg/measurement point histone IIIS, 0.2 μCi/measurement point ^33P-gamma-ATP, 0.05% NP40, 1.25% dimethyl sulphoxide] at 22° C. for 10 min. The reaction was stopped by adding EDTA solution (250 mM, pH 8.0, 15 μl/measurement point).
15 μl of each reaction mixture were loaded onto P30 filter strips (from Wallac), and non-incorporated ^33P-ATP was removed by washing the filter strips three times in 0.5% strength phosphoric acid for 10 min each time. After the filter strips had been dried at 70° C. for 1 hour, the filter strips were covered with scintillator strips (MeltiLex™ A, from Wallac) and baked at 90° C. for 1 hour. The amount of incorporated ^33P (substrate phosphorylation) was determined by scintillation measurement in a gamma radiation counter (Wallac).

CDK2/CycE = biological target: T3, CDK2/CycE (Homo sapiens, UniProt P24941); assay: CDK2/CycE kinase assay; assay type: biochemical; conditions: for IC50: 0.5 μM ATP, histone IIIS, 22° C., 10 min; for inhibition of CDK2 kinase (in words): summary of Tab. 1
T3 construct: GST; purchased ProQinase GmbH, Freiburg; host or cells: baculovirus-infected insect cells (Sf9)
Description: Recombinant CDK2- and CycE-GST fusion proteins, purified from baculovirus-infected insect cells (Sf9), were purchased from ProQinase GmbH, Freiburg. The histone IIIS used as kinase substrate was purchased from Sigma.
as §1, with “CDK2/CycE (50” for “Recombinant CDK1- and CycB-GST fusion proteins, purified from baculovirus-infected insect cells (Sf9), were purchased from ProQinase GmbH, Freiburg. The histone IIIS used as kinase substrate can be purchased from Sigma. CDK1/CycB (200”
15 μl of each reaction mixture were loaded onto P30 filter strips (from Wallac), and non-incorporated ^33P-ATP was removed by washing the filter strips three times in 0.5% strength phosphoric acid for 10 min each time.
After the filter strips had been dried at 70° C. for 1 hour, the filter strips were covered with scintillator strips (MeltiLex™ A, from Wallac) and baked at 90° C. for 1 hour. The amount of incorporated ^33P (substrate phosphorylation) was determined by scintillation measurement in a gamma radiation counter (Wallac).

KDR (VEGFR2) = biological target: T4, KDR (VEGFR2) (Homo sapiens, UniProt P35968); assay: KDR kinase assay; assay type: biochemical; conditions: 10 μM ATP, 22° C., 45 min, HTRF
T4 construct: made in house; host or cells: E. coli
Description: Recombinant KDR protein was expressed in E. coli and then purified. The kinase substrate used was the biotinylated peptide having the amino acid sequence biotin-DFGLARDMYDKEYYSVG, which was purchased from Biosynthan. KDR [test volume 5 μl] was incubated in the presence of various concentrations of test substances (0 μM, and 10 measurement points within the range 0.001-20 μM in duplicate) in assay buffer [50 mM HEPES pH 7.0, 25.0 mM MgCl2, […], 0.1 mM Na ortho-vanadate, 1.0 mM dithiothreitol, 0.001% NP40, 10 μM ATP, 0.03 μM substrate peptide […], 1.0% dimethyl sulphoxide] at 22° C. for 45 min. The reaction was stopped by adding 5 μl of an EDTA/detection solution [50 mM HEPES pH 7.5, 125 mM EDTA, 0.2% BSA, 0.1 μM streptavidin-XLent (from CisBio), 2 nM PT66-Eu (from PerkinElmer)]. The fluorescence emission at 620 nm and 665 nm after excitation with light of the wavelength 350 nm was measured in a Rubystar HTRF instrument from BMG Labsystems.
The measured data (ratio of emission 665 divided by emission 620 multiplied by 10 000) were normalized to 0% inhibition (enzyme reaction without inhibitor) and 100% inhibition (all assay components apart from enzyme). The IC50 values were determined by means of a 4-parameter fit using the company's own software.

MCF7 breast tumour cells = assay: MCF7 proliferation assay; assay type: cell-based, human; conditions: for IC50: Homo sapiens, MCF7, 96 h, 4 days incubation, crystal violet staining; for antiproliferative activity, MCF7 (in words): summary of Tab. 2
Description: Cultivated human MCF7 breast tumour cells (ATCC HTB-22) were plated out in a density of 5000 cells/measurement point in 200 μl of growth medium (RPMI1640, 10% foetal calf serum, 2 mU/mL insulin, 0.1 nM oestradiol) in a 96-well multititre plate. After 24 hours, the cells from a plate (zero plate) were stained with crystal violet (see below), while the medium in the other plates was replaced by fresh culture medium (200 μl) to which the test substances had been added in various concentrations (0 μM, and in the range 0.1-30 μM; the final concentration of the solvent dimethyl sulphoxide was 0.5%). The cells were incubated in the presence of the test substances for 4 days. The cell proliferation was determined by staining the cells with crystal violet: the cells were fixed by adding 20 μl/measurement point of an 11% strength glutaraldehyde solution at room temperature for 15 min. After the fixed cells had been washed three times with water, the plates were dried at room temperature. The cells were stained by adding 100 μl/measurement point of a 0.1% strength crystal violet solution (pH adjusted to pH 3 by adding acetic acid). After the stained cells had been washed three times with water, the plates were dried at room temperature. The dye was dissolved by adding 100 μl/measurement point of a 10% strength acetic acid solution, and the extinction was determined by photometry at a wavelength of 595 nm. The percentage change in cell growth was calculated by normalizing the measurements to the extinctions of the zero point plate (=0%) and the extinction of the untreated (0 μM) cells (=100%). The IC50 values were determined by means of a 4-parameter fit using the company's own software.

T4 sequence (P35968 20-1356, species assumed): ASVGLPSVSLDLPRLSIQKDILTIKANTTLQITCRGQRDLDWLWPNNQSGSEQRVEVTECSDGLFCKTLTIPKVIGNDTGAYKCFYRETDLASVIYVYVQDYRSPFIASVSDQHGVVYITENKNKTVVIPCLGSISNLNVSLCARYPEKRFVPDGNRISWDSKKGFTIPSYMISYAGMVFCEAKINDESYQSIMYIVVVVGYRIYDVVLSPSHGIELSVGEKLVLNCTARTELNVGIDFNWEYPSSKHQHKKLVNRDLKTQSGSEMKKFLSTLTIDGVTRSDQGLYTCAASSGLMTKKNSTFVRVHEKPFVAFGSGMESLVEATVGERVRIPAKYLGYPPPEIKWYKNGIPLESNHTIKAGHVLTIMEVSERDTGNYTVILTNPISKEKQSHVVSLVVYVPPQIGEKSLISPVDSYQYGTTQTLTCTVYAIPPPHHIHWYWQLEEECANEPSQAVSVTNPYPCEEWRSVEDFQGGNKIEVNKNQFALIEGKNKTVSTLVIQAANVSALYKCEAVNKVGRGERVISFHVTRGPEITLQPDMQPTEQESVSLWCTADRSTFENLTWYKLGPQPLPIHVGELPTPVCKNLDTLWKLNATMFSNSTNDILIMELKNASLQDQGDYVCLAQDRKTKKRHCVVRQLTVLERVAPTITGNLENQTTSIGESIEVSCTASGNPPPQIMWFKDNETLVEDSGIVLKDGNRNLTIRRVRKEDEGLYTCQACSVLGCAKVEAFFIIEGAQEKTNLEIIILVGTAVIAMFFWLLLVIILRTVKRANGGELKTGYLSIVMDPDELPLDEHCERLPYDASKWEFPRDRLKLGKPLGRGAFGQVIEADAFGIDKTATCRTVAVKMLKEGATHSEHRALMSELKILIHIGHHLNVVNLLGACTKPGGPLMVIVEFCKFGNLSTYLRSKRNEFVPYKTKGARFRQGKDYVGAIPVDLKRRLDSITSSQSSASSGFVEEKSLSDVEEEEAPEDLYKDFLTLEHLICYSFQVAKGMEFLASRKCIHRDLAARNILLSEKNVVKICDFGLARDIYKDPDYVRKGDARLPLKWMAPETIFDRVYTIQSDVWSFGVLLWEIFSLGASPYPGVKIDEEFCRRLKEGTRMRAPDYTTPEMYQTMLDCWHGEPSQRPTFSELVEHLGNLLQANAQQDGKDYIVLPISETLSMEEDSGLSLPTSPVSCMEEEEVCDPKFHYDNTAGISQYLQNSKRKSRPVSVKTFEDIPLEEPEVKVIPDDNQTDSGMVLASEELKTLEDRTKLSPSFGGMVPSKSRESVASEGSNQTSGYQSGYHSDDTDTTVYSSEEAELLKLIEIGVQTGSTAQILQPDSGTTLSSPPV
T2 sequence (P06493 whole entry): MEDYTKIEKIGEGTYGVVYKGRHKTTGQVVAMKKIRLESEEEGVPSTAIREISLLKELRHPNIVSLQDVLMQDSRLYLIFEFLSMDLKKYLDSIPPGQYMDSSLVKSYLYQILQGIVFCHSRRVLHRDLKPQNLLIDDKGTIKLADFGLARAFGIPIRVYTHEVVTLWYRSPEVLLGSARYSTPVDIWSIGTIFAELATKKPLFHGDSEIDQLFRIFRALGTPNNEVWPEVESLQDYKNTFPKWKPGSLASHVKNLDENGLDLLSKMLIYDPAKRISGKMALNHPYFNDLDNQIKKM
T2 sequence (P14635 whole entry partner): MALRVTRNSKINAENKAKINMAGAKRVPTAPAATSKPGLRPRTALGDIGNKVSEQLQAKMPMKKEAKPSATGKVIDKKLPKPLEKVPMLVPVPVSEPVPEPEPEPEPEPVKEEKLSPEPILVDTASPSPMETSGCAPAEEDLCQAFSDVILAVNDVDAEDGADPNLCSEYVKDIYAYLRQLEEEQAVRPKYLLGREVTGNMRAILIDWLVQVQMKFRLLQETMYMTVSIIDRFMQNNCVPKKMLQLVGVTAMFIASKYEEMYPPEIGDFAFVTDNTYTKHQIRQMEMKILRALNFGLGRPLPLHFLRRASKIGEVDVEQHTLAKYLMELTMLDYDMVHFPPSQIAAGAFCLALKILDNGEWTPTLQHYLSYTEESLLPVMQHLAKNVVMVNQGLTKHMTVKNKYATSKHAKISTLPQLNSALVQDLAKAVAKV

| Structure (SMILES) | IC50 (Aurora-C) [nM] | IC50 (CDK1/CycB) [nM] | IC50 (CDK2/CycE) [nM] | IC50 (KDR (VEGFR2)) [nM] | IC50 (MCF7 breast tumour cells) [nM] | inhibition of CDK2 kinase (in words) (CDK2/CycE) | inhibition of Aurora C kinase (in words) (Aurora-C; summary of Tab. 1) | antiproliferative activity, MCF7 (in words) (MCF7 breast tumour cells) |
| --- | --- | --- | --- | --- | --- | --- | --- | --- |
| CC(=O)Nc1nnc(S(=O)(=O)N=S(C)c2ccc(Nc3ncc(Br)c(N[C@H](C)C(C)(C)O)n3)cc2)s1 (mixture of isomers) [Example 19, (RS)—N-{[5-(Acetylamino)-1,3,4-thiadiazol-2-yl]sulphonyl}-S-{4-[(5-bromo-4-{[(R)-2-hydroxy-1,2-dimethylpropyl]amino}pyrimidin-2-yl)amino]phenyl}-S-methyl-sulphimide] | 1100 | 98 | 25 | 320 | 1800 |  |  |  |
| C[C@@H](Nc1nc(Nc2ccc(S(C)=NS(=O)(=O)c3ccc(OC(F)(F)F)cc3)cc2)ncc1Br)C(C)(C)O (mixture of isomers) [Example 16, (RS)—S-{4-[(5-Bromo-4-{[(R)-2-hydroxy-1,2-dimethylpropyl]-amino}pyrimidin-2-yl)amino]phenyl}-S-methyl-N-{[4-(trifluoromethoxy)phenyl]-sulphonyl}sulphimide] | 1800 | 260 | 72 | 150 | 170 |  |  | excellent antiproliferative activity |
| C[C@@H](Nc1nc(Nc2ccc(S(C)=NS(=O)(=O)C(F)(F)F)cc2)ncc1Br)C(C)(C)O (mixture of isomers) [Example 14, (RS)—S-{4-[(5-Bromo-4-{[(R)-2-hydroxy-1,2-dimethylpropyl]amino}pyrimidin-2-yl)amino]phenyl}-S-methyl-N-[(trifluoromethyl)sulphonyl]sulphimide] | 990 | 120 | 39 | 70 | 110 |  |  | excellent antiproliferative activity |
| C[C@@H](Nc1nc(Nc2ccc(S(C)=NS(=O)(=O)c3ccccc3)cc2)ncc1Br)C(C)(C)O (mixture of isomers) [Example 15, (RS)—S-{4-[(5-Bromo-4-{[(R)-2-hydroxy-1,2-dimethylpropyl]amino}pyrimidin-2-yl)amino]phenyl}-S-methyl-N-(phenylsulphonyl)sulphimide] | 570 | 110 | 21 | 37 | 110 |  |  | excellent antiproliferative activity |

Now those with a lower IC50 (Aurora-C), led by results:

| IC50 (Aurora-C) [nM] | IC50 (CDK1/CycB) [nM] | IC50 (CDK2/CycE) [nM] | IC50 (KDR (VEGFR2)) [nM] | IC50 (MCF7 breast tumour cells) [nM] | inhibition of CDK2 kinase (in words) (CDK2/CycE) | inhibition of Aurora C kinase (in words) (Aurora-C; summary of Tab. 1) | Structure (SMILES) | antiproliferative activity, MCF7 (in words) (MCF7 breast tumour cells) |
| --- | --- | --- | --- | --- | --- | --- | --- | --- |
| 240 | > 1000 | 900 | 37 | 2200 |  |  | Cc1ccc(S(=O)(=O)N=S(C)c2ccc(Nc3ncc(Br)c(NC(C)C)n3)cc2)cc1 (racemic) [Example 1, (RS)—S-(4-{[5-Bromo-4-(isopropylamino)pyrimidin-2-yl]amino}phenyl)-S-methyl-N-(tolylsulphonyl)sulphimide] |  |
| 360 | 150 | 28 | 36 | < 100 | shows inhibition |  | Cc1ccc(S(=O)(=O)N=S(C)c2ccc(Nc3ncc(Br)c(N[C@H](C)C(C)(C)O)n3)cc2)cc1 (mixture of isomers) [Example 9, (RS)—S-{4-[(5-Bromo-4-{[(R)-2-hydroxy-1,2-dimethylpropyl]amino}pyrimidin-2-yl)amino]phenyl}-S-methyl-N-(tolylsulphonyl)sulphimide] | excellent antiproliferative activity |
| 390 | 46 | 22 | 44 | 330 |  |  | C[C@@H](Nc1nc(Nc2ccc(S(C)=NS(=O)(=O)C(C)(C)C)cc2)ncc1Br)C(C)(C)O (mixture of isomers) [Example 22, (RS)—S-{4-[(5-Bromo-4-{[(R)-2-hydroxy-1,2-dimethylpropyl]amino}pyrimidin-2-yl)amino]phenyl}-N-(tert-butylsulphonyl)-S-methylsulphimide] |  |
| 370 | 90 | 14 | 44 | < 100 | active | active | C[C@@H](Nc1nc(Nc2ccc(S(C)=NS(=O)(=O)c3cnccc3Cl)cc2)ncc1Br)C(C)(C)O (mixture of isomers) [Example 11, (RS)—S-{4-[(5-Bromo-4-{[(R)-2-hydroxy-1,2-dimethylpropyl]amino}pyrimidin-2-yl)amino]phenyl}-N-[(4-chloro-3-pyridyl)sulphonyl]-S-methylsulphimide] |  |
